Where two headings read alike, the source gives them in different places.
Tests used:
Format in all cases: in vivo
rat [1] = experiment: Ulcerogen activity in the fasted rat (autopsic examination of stomach, jejunum, large intestine and liver); conditions: 5 mg/kg
Experimental: In order to complete the picture of the possible ulcerogen activity, in the rat, of the product which is the object of this invention, a further research on the rat as against Product A, was performed.
Both the test molecules were suspended in 5% arabic gum and taken to solution.
The pharmacological treatment at the standard dose of 5 mg/kg was effected orally by means of a gastro-oesophageal probe.
The groups of animals were treated after 9, 24, 31, 50, 53, 56, 60 and 70 hours from beginning of the fasting. During the fasting period the animals received subcutaneously, 2 ml/die/animal of a 5% glucose solution in […]. The animals were sacrificed, by decapitation, at 48 and 72 hours from beginning of the fasting; there were drawn for autopsic examination, jejunum and large intestine, which were examined microscopically in order to detect the presence of any possible ulcerations.

mouse [2] = experiment: Antalgic activity in the mouse: tail-compression test (Bianchi C. test); conditions: oral; for Time for which the algic stimulus is tolerated: two hours from administration, equal doses
Experimental: The time elapsing between the algic stimulus and the reaction of the mouse trying to get out of said stimulus was determined in seconds.
The measure was effected at the times 0, 1, 2, 3 hours from administation of the derivative object of the present invention (Product B) and from administration of the comparison compound (Product A).
1--two lots of control animals: 0.5 ml/animal of mucilage of 5% arabic gum;
2--one lot treated with Product A--4 mg/kg;
3--one lot treated with Product A--7 mg/kg;
4--one lot treated with Product B--4 mg/kg;
5--one lot treated with Product B--7 mg/kg.

mouse [3] = experiment: Acute toxicity in the mouse, orally; conditions: for Autopsical examination (gastroenteric hyperemia, ulcers): oral
Text: (§1) Firstly, the acute and subacute toxicity in the mouse orally has been tested.
(§2) Table 1- Acute toxicity, in the mouse, of 1-(p-chlorobenzoyl)5-methoxy-2-methylindole-3-acetic acid (Product A) and of 1-(p-chlorobenzoyl) -5-methoxy-2-methylindole-3-acet-3-oxo-1-isobenzofuranyl ester derivative (Product B)

[4] = Acute toxicity in the mouse, orally; conditions: in vivo, oral, read-out: Mortality at 10th day %
Text: as §1, §2

rat [5] = experiment: Ulcerogen activity in the fasted rat (autopsic examination of stomach, jejunum, large intestine and liver); conditions: 5 mg/kg; remark: listed apart in the source
[6] = system: paw-oedema, induced by means of sub-plantar injection of carrageenin; experiment: Anti-phlogistic activity: carrageenin-induced paw-oedema in the rat; conditions: oral
Experimental: In order to show the therapeutical activity of the derivative, which is an object of this invention, a research was carried out firstly on the anti-phlogistic activity as compared with the one of Product A.
The research was carried out in the rat by using the test of paw-oedema, induced by means of sub-plantar injection of carrageenin in a 1% solution. 0.1 ml of this solution was injected to each animal.
One hour before inoculation of the oedemigenous agent, the two test drugs were administered orally (gastric probe) to the different groups, according to the experimental scheme, and contemporaneously were measured, with a base value, the volume of the right untreated paw.
The treatment was effected on lots of five male animals of average weight of 240-270 g., according to the following experimental scheme:
1--three lots of control animals: 10 ml/kg mucilage of arabic gum;
2--one lot of animals treated with Product A--5 mg/kg;
3--one lot of animals treated with Product A--5.3 mg/kg;
4--one lot of animals treated with Product A--7 mg/kg;
5--one lot of animals treated with Product B--5 mg/kg;
6--one lot of animals treated with Product B--5.3 mg/kg;
7--one lot of animals treated with Product B--7 mg/kg.

[7] = oral, sacrificed at 48 hours from beginning of fasting (3 administrations)
[8] = oral, sacrificed at 72 hours from beginning of fasting (8 administrations)

Compound	Large intestine (caecum), autopsic examination (rat [1]; [7])	Small intestine (jejunum), autopsic examination (rat [1]; [7])	Caecum, autopsic examination (rat [1]; [8])	Jejunum, autopsic examination (rat [1]; [8])	Time for which the algic stimulus is tolerated (mouse [2])	Autopsical examination (gastroenteric hyperemia, ulcers) (mouse [3])	mortality at 240 h ([4]; dose 10 mg/kg)	mortality at 240 h ([4]; dose 18 mg/kg)	mortality at 240 h ([4]; dose 20 mg/kg)	mortality at 240 h ([4]; dose 25 mg/kg)	mortality at 240 h ([4]; dose 28 mg/kg)	Stomach, autopsic examination (rat [5]; [7])	Stomach, autopsic examination (rat [5]; [8])	Anti-phlogistic effect (onset and extent) compared with the comparison product [6]	Anti-phlogistic activity compared with Product A ([6]; doses being equal (5, 5.3, 7 mg/kg), within the first three hours)	Caecum, autopsic examination (rat [1]; in vivo, po)	Liver, macroscopic and microscopic examination (rat [1]; in vivo, po)	Antalgic activity compared with the comparison product (mouse [2]; mouse, 4 and 7 mg/kg)	Toxic component compared with the free acid (mouse [3]; in vivo)	Stomach, autopsic examination (rat [5]; in vivo, po)
COc1ccc2c(c1)c(CC(=O)O)c(C)n2C(=O)c1ccc(Cl)cc1 [Product A, 1-(p-chlorobenzoyl)-5-methoxy-2-methylindole-3-acetic acid, reference compound]	highly hyperemic	slightly hyperemic, with presence of microulcers	Caecum with hemorrhagic microareas	Jejunum diffusely hyperemic	≤ 30 s	very marked gastroenteric hyperemia with presence of numerous ulcers	40%	70%	90%	100%	100%	Stomach diffusely hyperemic	Stomach highly hyperemic with presence of evident macroulcers	–	–	–	–	–	–	–
COc1ccc2c(c1)c(CC(=O)OC1OC(=O)c3ccccc31)c(C)n2C(=O)c1ccc(Cl)cc1 (stereo not shown) [Product B, 1-(p-chlorobenzoyl)-5-methoxy-2-methyl indole-3-acetic acid 3-oxo-1-isobenzofuranyl ester]	–	–	–	Jejunum slightly hyperemic	45 s	only a slight gastroenteric hyperemia, but no ulcer	20%	40%	50%	60%	70%	–	–	remarkably more precocious, as well as more marked	signficantly more active, doses being equal, than the comparison product (Product A) within the first three hours	None at caecum level	nothing pathological resulted	quite superior	lesser than the one of the free acid	No considerable alteration at stomach level
